ChEMBL document CHEMBL1201862, “PubChem BioAssay data set” (2004)
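These data come from cells grown in 96-well plates and exposed to compound for 48 hours at five concentrations. GI50 marks 50% less growth.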 Activity calls are given as the source filed them. Cut-off read from the data, not from the text of the source: active = GI50 up to about 1.1 µM and inactive = higher.

Experiments:
Test in all cases: NCI anticancer screen, dose series, 48 h
[1] = test system: BT-549
[2] = test system: NCI-H460
[3] = test system: HCT-15
[4] = test system: M14
[5] = test system: HL-60
[6] = test system: MDA-N
[7] = test system: SR
[8] = test system: U-251
[9] = test system: UACC-257
[10] = test system: Malme-3M
[11] = test system: RPMI-8226
[12] = test system: EKVX
[13] = test system: OVCAR-8
[14] = test system: OVCAR-5
[15] = test system: SF-539
[16] = test system: OVCAR-3
[17] = test system: 786-0
[18] = test system: NCI/ADR-RES
[19] = test system: NCI-H23
[20] = test system: MOLT-4
[21] = test system: A498
[22] = test system: IGROV-1
[23] = test system: NCI-H226
[24] = test system: SNB-19
[25] = test system: COLO 205
[26] = test system: MDA-MB-231
[27] = test system: OVCAR-4
[28] = test system: TK-10
[29] = test system: SK-OV-3
[30] = test system: A549
[31] = test system: K562
[32] = test system: SN12C
[33] = test system: HCC 2998
[34] = test system: UO-31
[35] = test system: CAKI-1
[36] = test system: DU-145
[37] = test system: SK-MEL-28
[38] = test system: SF-268
[39] = test system: HT-29
[40] = test system: CCRF-CEM
[41] = test system: SNB-75
[42] = test system: HCT-116
[43] = test system: SW-620
[44] = test system: Hs-578T
[45] = test system: SK-MEL-2
[46] = test system: HOP-92
[47] = test system: SF-295
[48] = test system: MCF7
[49] = test system: MDA-MB-435
[50] = test system: ACHN
[51] = test system: SK-MEL-5
[52] = test system: NCI-H522
[53] = test system: KM12
[54] = test system: RXF 393
[55] = test system: HOP-62
[56] = test system: T47D
[57] = test system: UACC-62
[58] = test system: PC-3
[59] = test system: LOX IMVI

## CCN(CC)CCN1C(=O)c2cccc3cc(N)cc(c23)C1=O
[1]
  GI50: 16.1 µM (inactive)
[2]
  GI50: 3.98 µM (inactive)
[3]
  GI50: 5.43 µM
[4]
  GI50: 13.3 µM (inactive)
[5]
  GI50: 16.6 µM (inactive)
[6]
  GI50: 10.3 µM (inactive)
[7]
  GI50: 3.32 µM (inactive)
[8]
  GI50: 9.48 µM (inactive)
[9]
  GI50: 10.7 µM (inactive)
[10]
  GI50: 13 µM (inactive)
[11]
  GI50: 7.35 µM (inactive)
[12]
  GI50: 5.02 µM (inactive)
[13]
  GI50: 6.68 µM (inactive)
[14]
  GI50: 3.06 µM (inactive)
[15]
  GI50: 5.09 µM (inactive)
[16]
  GI50: 12.7 µM (inactive)
[17]
  GI50: 5.32 µM (inactive)
[18]
  GI50: 7.21 µM (inactive)
[19]
  GI50: 7.23 µM (inactive)
[20]
  GI50: 3.46 µM (inactive)
[21]
  GI50: 19.1 µM (inactive)
[22]
  GI50: 7.59 µM (inactive)
[23]
  GI50: 16.6 µM (inactive)
[24]
  GI50: 13.6 µM (inactive)
[25]
  GI50: 4.41 µM (inactive)
[26]
  GI50: 16.9 µM (inactive)
[27]
  GI50: 12.4 µM (inactive)
[28]
  GI50: 17.9 µM (inactive)
[29]
  GI50: 8.53 µM (inactive)
[30]
  GI50: 5.57 µM (inactive)
[31]
  GI50: 5.98 µM (inactive)
[32]
  GI50: 4.31 µM (inactive)
[33]
  GI50: 8.61 µM (inactive)
[34]
  GI50: 5.89 µM (inactive)
[35]
  GI50: 7.28 µM (inactive)
[36]
  GI50: 8.45 µM (inactive)
[37]
  GI50: 19.3 µM (inactive)
[38]
  GI50: 12.6 µM (inactive)
[39]
  GI50: 3.24 µM (inactive)
[40]
  GI50: 6.28 µM (inactive)
[41]
  GI50: 15.8 µM (inactive)
[42]
  GI50: 4.16 µM (inactive)
[43]
  GI50: 4.91 µM (inactive)
[44]
  GI50: 22.7 µM (inactive)
[45]
  GI50: 18.9 µM (inactive)
[46]
  GI50: 35.8 µM (inactive)
[47]
  GI50: 9.12 µM (inactive)
[48]
  GI50: 4.39 µM (inactive)
[49]
  GI50: 10.2 µM (inactive)
[50]
  GI50: 4.94 µM (inactive)
[51]
  GI50: 12.9 µM (inactive)
[52]
  GI50: 6.43 µM (inactive)
[53]
  GI50: 9.73 µM (inactive)
[54]
  GI50: 14.2 µM (inactive)
[55]
  GI50: 5.45 µM (inactive)
[56]
  GI50: 18.7 µM (inactive)
[57]
  GI50: 11.8 µM (inactive)
[58]
  GI50: 16.1 µM (inactive)

## COc1ccc(/C=C2\CCS(=O)(=O)c3ccccc3C2=O)cc1
[1]
  GI50: 31.8 µM (inactive)
[2]
  GI50: 21.7 µM (inactive)
[3]
  GI50: 19.6 µM
[4]
  GI50: 34.4 µM (inactive)
[5]
  GI50: 21.5 µM (inactive)
[6]
  GI50: 31.4 µM (inactive)
[7]
  GI50: 8.55 µM (inactive)
[8]
  GI50: 17.8 µM (inactive)
[9]
  GI50: 23.3 µM (inactive)
[11]
  GI50: 19.3 µM (inactive)
[12]
  GI50: 19.1 µM (inactive)
[13]
  GI50: 22.2 µM (inactive)
[14]
  GI50: 26.7 µM (inactive)
[15]
  GI50: 21.1 µM (inactive)
[16]
  GI50: 30 µM (inactive)
[17]
  GI50: 18.3 µM (inactive)
[18]
  GI50: 20.1 µM (inactive)
[19]
  GI50: 25.7 µM (inactive)
[20]
  GI50: 18.1 µM (inactive)
[21]
  GI50: 20.9 µM (inactive)
[22]
  GI50: 18.2 µM (inactive)
[23]
  GI50: 20.2 µM (inactive)
[24]
  GI50: 24.5 µM (inactive)
[25]
  GI50: 15.2 µM (inactive)
[59]
  GI50: 20.4 µM (inactive)
[26]
  GI50: 24.6 µM (inactive)
[27]
  GI50: 24.5 µM (inactive)
[28]
  GI50: 23.2 µM (inactive)
[29]
  GI50: 38.3 µM (inactive)
[30]
  GI50: 39.4 µM (inactive)
[31]
  GI50: 30.1 µM (inactive)
[32]
  GI50: 28.3 µM (inactive)
[33]
  GI50: 20 µM (inactive)
[34]
  GI50: 19.7 µM (inactive)
[35]
  GI50: 26.5 µM (inactive)
[36]
  GI50: 23.2 µM (inactive)
[37]
  GI50: 26.9 µM (inactive)
[38]
  GI50: 30.3 µM (inactive)
[39]
  GI50: 18.8 µM (inactive)
[40]
  GI50: 20 µM (inactive)
[41]
  GI50: 33.3 µM (inactive)
[42]
  GI50: 17.1 µM (inactive)
[43]
  GI50: 20.9 µM (inactive)
[44]
  GI50: 31.3 µM (inactive)
[45]
  GI50: 31.4 µM (inactive)
[46]
  GI50: 36 µM (inactive)
[47]
  GI50: 35 µM (inactive)
[48]
  GI50: 35.4 µM (inactive)
[49]
  GI50: 26.9 µM (inactive)
[50]
  GI50: 24.4 µM (inactive)
[53]
  GI50: 16.6 µM (inactive)
[54]
  GI50: 22.6 µM (inactive)
[55]
  GI50: 36.3 µM (inactive)
[56]
  GI50: 22.7 µM (inactive)
[57]
  GI50: 20 µM (inactive)
[58]
  GI50: 27.5 µM (inactive)

## CCOC(=O)/C(=C\c1c[nH]c2ccccc12)P(=O)(OCC)OCC
[1]
  GI50: 25.4 µM (inactive)
[2]
  GI50: 24.5 µM (inactive)
[3]
  GI50: 27.7 µM
[4]
  GI50: 39.6 µM (inactive)
[5]
  GI50: 37.5 µM (inactive)
[6]
  GI50: 35.8 µM (inactive)
[7]
  GI50: 25.1 µM (inactive)
[8]
  GI50: 33.8 µM (inactive)
[9]
  GI50: 45.3 µM (inactive)
[10]
  GI50: 18.9 µM (inactive)
[11]
  GI50: 33.5 µM (inactive)
[12]
  GI50: 59.8 µM (inactive)
[13]
  GI50: 22.3 µM (inactive)
[14]
  GI50: 26.2 µM (inactive)
[15]
  GI50: 21.9 µM (inactive)
[16]
  GI50: 19.3 µM (inactive)
[17]
  GI50: 31.3 µM (inactive)
[18]
  GI50: 25.3 µM (inactive)
[19]
  GI50: 29.6 µM (inactive)
[20]
  GI50: 55.1 µM (inactive)
[21]
  GI50: 28.8 µM (inactive)
[22]
  GI50: 39 µM (inactive)
[23]
  GI50: 28.3 µM (inactive)
[24]
  GI50: 62.7 µM (inactive)
[25]
  GI50: 20.7 µM (inactive)
[59]
  GI50: 20.6 µM (inactive)
[26]
  GI50: 27.7 µM (inactive)
[27]
  GI50: 23.9 µM (inactive)
[28]
  GI50: 42.6 µM (inactive)
[29]
  GI50: 30.5 µM (inactive)
[30]
  GI50: 40.5 µM (inactive)
[31]
  GI50: 50.9 µM (inactive)
[32]
  GI50: 30.5 µM (inactive)
[33]
  GI50: 65.3 µM (inactive)
[35]
  GI50: > 100 µM (inactive)
[36]
  GI50: 46.1 µM (inactive)
[37]
  GI50: 36.8 µM (inactive)
[38]
  GI50: 29.5 µM (inactive)
[39]
  GI50: 28.4 µM (inactive)
[40]
  GI50: 16.7 µM (inactive)
[41]
  GI50: 26.5 µM (inactive)
[42]
  GI50: 32.9 µM (inactive)
[43]
  GI50: 45.7 µM (inactive)
[44]
  GI50: 42.8 µM (inactive)
[46]
  GI50: 29.2 µM (inactive)
[47]
  GI50: 39.9 µM (inactive)
[48]
  GI50: 50.8 µM (inactive)
[49]
  GI50: 40.9 µM (inactive)
[50]
  GI50: 41.4 µM (inactive)
[51]
  GI50: 55.8 µM (inactive)
[52]
  GI50: 26.8 µM (inactive)
[53]
  GI50: 33.2 µM (inactive)
[54]
  GI50: 33.6 µM (inactive)
[55]
  GI50: 42.6 µM (inactive)
[56]
  GI50: 43.8 µM (inactive)
[57]
  GI50: 32.9 µM (inactive)
[58]
  GI50: 17.4 µM (inactive)
